The source made the active and inactive calls. How the calls were made is not given here.

This experiment relates to Fam108b (ABHD17B) [Mus musculus], recombinant soluble. Briefly: mouse Fam108b hydrolase inhibitors, soluble construct – biochemical, gel-based ABPP, soluble form, SAR follow-up (AID 588589). Particulars: fluorophosphonate probe, at 5 µM, hits give high values.
Usually inhibition stands for the drop in the measured response relative to a control, in per cent. Turning to `O=c1oc(-c2cc3ccccc3o2)nc2ccc(Br)cc12`, the inhibition is 0% (inactive).

Regarding `Cc1noc2nc(-c3ccccc3Cl)oc(=O)c12`, the inhibition was 5% (inactive).

As to `O=c1oc(-c2cccs2)nc2scc(-c3ccccc3)c12`, the inhibition is 55% (inactive).

Turning to `Cc1ccccc1-c1nc2scc(-c3ccc(Br)cc3)c2c(=O)o1`, the inhibition was 0% (inactive).

As to `O=c1oc(-c2ccccc2)nc2c1cnn2-c1ccccc1`, the inhibition was 70%.

Regarding `COc1cc2nc(-c3ccc(C(C)(C)C)cc3)oc(=O)c2cc1OC`, the inhibition is 0% (inactive).

On to `CCOc1ccc(-c2csc3nc(-c4ccc(F)cc4)oc(=O)c23)cc1`, for which the inhibition was 0% (inactive).

In the case of `O=c1oc(/C=C/c2ccccc2)nc2scc(-c3cccs3)c12`, the inhibition is 10% (inactive).

Turning to `O=C1CCC(=O)N1c1ccc(-c2nc3scc(-c4cccs4)c3c(=O)o2)cc1`, the inhibition was 0% (inactive).

As to `O=C1OC(=O)c2cc(-c3nc4ccccc4c(=O)o3)ccc21`, the inhibition is 0% (inactive).

Consider `Cc1nsc2nc(-c3cc(S(=O)(=O)N4CCCCC4)ccc3Cl)oc(=O)c12`, for which the inhibition is 15% (inactive).

For `COc1cc2nc(-c3ccccc3SC)oc(=O)c2cc1OC`, the inhibition is 15% (inactive).

As for `O=c1oc(-c2cccs2)nc2cc(Cl)ccc12`, the inhibition was 40% (inactive).

As to `O=c1oc(Cc2ccccc2)nc2scc(-c3ccccc3)c12`, the inhibition is 45% (inactive).

As to `O=c1oc(-c2cccc(F)c2)nc2c1cnn2-c1ccccc1`, the inhibition was 70%.

In the case of `Cc1nsc2nc(-c3cc(Cl)ccc3Cl)oc(=O)c12`, the inhibition was 15% (inactive).

`O=c1oc(-c2cccc(Br)c2)nc2scc(-c3ccccc3)c12`: the inhibition was 5% (inactive).

As to `O=c1oc(-c2cccc(Cl)c2)nc2scc(-c3ccc(Br)cc3)c12`, the inhibition was 0% (inactive).

Turning to `Cc1nsc2nc(-c3cc(Cl)nnc3Cl)oc(=O)c12`, the inhibition is 10% (inactive).

Turning to `Cc1nsc2nc(-c3ccc(Cl)cc3Cl)oc(=O)c12`, the inhibition was 20% (inactive).

Regarding `O=c1oc(-c2ccc(-c3ccccc3)cc2)nc2scc(-c3ccccc3)c12`, the inhibition was 0% (inactive).

Regarding `COc1cc(-c2nc3scc(-c4ccccc4)c3c(=O)o2)cc(OC)c1OC`, the inhibition is 0% (inactive).

Consider `O=c1oc(-c2cccs2)nc2c1cnn2-c1ccccc1`, for which the inhibition is 70%.

`COc1cc2nc(-c3c(OC)cccc3OC)oc(=O)c2cc1OC`: the inhibition is 0% (inactive).

For `CCc1nsc2nc(-c3ccccc3Cl)oc(=O)c12`, the inhibition is 20% (inactive).

With `S=c1sc(-c2ccccc2Cl)nc2ccccc12`, the inhibition is 35% (inactive).

As for `Cc1nsc2nc(-c3cc4ccccc4nc3Cl)oc(=O)c12`, the inhibition was 40% (inactive).

Regarding `O=c1oc(-c2ccccc2F)nc2scc(-c3ccc(Br)cc3)c12`, the inhibition was 50% (inactive).

In the case of `O=c1oc(-c2ccc(Br)cc2)nc2c1cnn2-c1ccccc1`, the inhibition is 0% (inactive).

With `CCOc1ccc(-c2csc3nc(-c4ccccc4OC)oc(=O)c23)cc1`, the inhibition was 35% (inactive).

As for `CC(=O)Oc1ccc2nc(-c3ccccc3)oc(=O)c2c1`, the inhibition was 0% (inactive).

With `COc1ccc(-c2csc3nc(-c4ccc(C)cc4)oc(=O)c23)cc1`, the inhibition is 0% (inactive).

For the compound `CSc1ccc(Cl)c(-c2nc3snc(C)c3c(=O)o2)c1`, the inhibition was 10% (inactive).

Take `Cc1nsc2nc(-c3cc([N+](=O)[O-])ccc3Cl)oc(=O)c12`: the inhibition is 15% (inactive).

For `CC(C)c1nsc2nc(-c3ccccc3Cl)oc(=O)c12`, the inhibition is 0% (inactive).

As for `Cc1nsc2nc(-c3cc(Br)cnc3Cl)oc(=O)c12`, the inhibition was 10% (inactive).

`O=c1oc(-c2ccccc2Cl)nc2c1oc1ccccc12`: the inhibition is 40% (inactive).

As for `O=c1oc(-c2ccco2)nc2c1cnn2-c1ccccc1`, the inhibition was 50% (inactive).

As to `CCOc1ccc(-c2csc3nc(-c4ccccc4C)oc(=O)c23)cc1`, the inhibition is 5% (inactive).

`COCc1nsc2nc(-c3ccccc3Cl)oc(=O)c12`: the inhibition was 0% (inactive).

In the case of `O=c1oc(-c2ccccc2Cl)nc2c1cnn2-c1ccccc1`, the inhibition is 80%.

On to `COc1ccc(-c2csc3nc(Cc4ccccc4)oc(=O)c23)cc1OC`, for which the inhibition was 5% (inactive).

As for `COc1ccc(/C=C/c2nc3scc(-c4cccs4)c3c(=O)o2)cc1`, the inhibition is 0% (inactive).

Take `Cc1nsc2nc(-c3cc(F)c(F)cc3Cl)oc(=O)c12`: the inhibition is 15% (inactive).

Consider `Cc1ccc2nc(-c3ccccc3Cl)oc(=O)c2c1`, for which the inhibition is 15% (inactive).

On to `O=c1oc(-c2ccco2)nc2cccc(F)c12`, for which the inhibition was 5% (inactive).

For `Cc1ccc(-c2csc3nc(-c4ccc(C(C)(C)C)cc4)oc(=O)c23)cc1`, the inhibition was 5% (inactive).

As to `Cc1nsc2nc(-c3ccc([N+](=O)[O-])cc3Cl)oc(=O)c12`, the inhibition was 10% (inactive).

On to `Cc1ccc(-c2csc3nc(-c4ccc(-c5ccccc5)cc4)oc(=O)c23)cc1`, for which the inhibition is 0% (inactive).

In the case of `Cc1nsc2nc(-c3sc4ccccc4c3Cl)oc(=O)c12`, the inhibition is 20% (inactive).

Consider `CC(C)(C)c1ccc(-c2nc3scc(-c4cccs4)c3c(=O)o2)cc1`, for which the inhibition is 0% (inactive).

On to `O=C(Nc1cccc(-c2nc3ccccc3c(=O)o2)c1)c1ccccc1`, for which the inhibition was 50% (inactive).

Turning to `Cc1nsc2nc(-c3cc(S(=O)(=O)N(C)C)ccc3Cl)oc(=O)c12`, the inhibition is 10% (inactive).

Turning to `O=c1oc(-c2ccc(Br)cc2)nc2scc(-c3cccs3)c12`, the inhibition is 0% (inactive).

For `COc1ccc(-c2csc3nc(-c4ccc(F)cc4)oc(=O)c23)cc1`, the inhibition was 0% (inactive).

Take `O=C1CCC(=O)N1c1ccc(-c2nc3scc(-c4ccc(F)cc4)c3c(=O)o2)cc1`: the inhibition was 0% (inactive).

`O=c1oc(-c2ccccc2F)nc2c1cnn2-c1ccccc1`: the inhibition was 75%.

For `Cc1nsc2nc(-c3cccnc3Cl)oc(=O)c12`, the inhibition is 5% (inactive).

Take `COc1ccc(-c2csc3nc(-c4ccc(Cl)cc4)oc(=O)c23)cc1`: the inhibition is 0% (inactive).

As to `O=C1CCC(=O)N1c1ccc(-c2nc3scc(-c4ccccc4)c3c(=O)o2)cc1`, the inhibition was 65%.

Consider `Cc1nsc2nc(-c3ccc(F)cc3Cl)oc(=O)c12`, for which the inhibition is 25% (inactive).

Turning to `O=c1oc(-c2ccccn2)nc2ccccc12`, the inhibition was 45% (inactive).

As to `O=c1oc(-c2cccc(Cl)c2)nc2c1cnn2-c1ccccc1`, the inhibition is 20% (inactive).

`Cc1nc2c(oc3ccccc32)c(=O)o1`: the inhibition was 25% (inactive).

As for `Cc1nsc2nc(-c3cc(S(C)(=O)=O)ccc3Cl)oc(=O)c12`, the inhibition was 5% (inactive).

In the case of `O=c1oc(-c2ccccc2)nc2c1oc1ccccc12`, the inhibition is 35% (inactive).

Turning to `CCOc1cc2nc(-c3ccccc3SC)oc(=O)c2cc1OCC`, the inhibition is 5% (inactive).

As to `Cc1ccc(-c2nc3sc(C)c(C)c3c(=O)o2)cc1`, the inhibition was 0% (inactive).

With `O=c1oc(-c2ccc(C(F)(F)F)cc2)nc2c1oc1ccc(Cl)cc12`, the inhibition is 40% (inactive).

Take `CC(C)(C)c1ccc(-c2nc3sc4c(c3c(=O)o2)CCCC4)cc1`: the inhibition was 0% (inactive).

As to `O=c1oc(-c2ccc(F)cc2)nc2scc(-c3cccs3)c12`, the inhibition is 0% (inactive).

As for `COc1ccc(-c2csc3nc(-c4ccccc4Br)oc(=O)c23)cc1`, the inhibition was 0% (inactive).

Regarding `Cc1sc2nc(-c3ccc(-c4ccccc4)cc3)oc(=O)c2c1C`, the inhibition was 0% (inactive).

Take `CC(C)(C)c1ccc(-c2nc3scc(-c4ccccc4)c3c(=O)o2)cc1`: the inhibition is 0% (inactive).

Turning to `CC(C)(C)c1nc2scc(-c3ccccc3)c2c(=O)o1`, the inhibition is 70%.

`Cc1ccccc1-c1nc2scc(-c3cccs3)c2c(=O)o1`: the inhibition is 15% (inactive).

Turning to `COc1ccc(-c2csc3nc(-c4cccc5ccccc45)oc(=O)c23)cc1OC`, the inhibition is 5% (inactive).

With `CCN(CC)S(=O)(=O)c1ccc(Cl)c(-c2nc3snc(C)c3c(=O)o2)c1`, the inhibition is 0% (inactive).

For `Cc1ccc(-c2nc3scc(-c4ccc(Br)cc4)c3c(=O)o2)cc1`, the inhibition is 0% (inactive).

With `COc1ccc(-c2csc3nc(-c4ccccc4C)oc(=O)c23)cc1`, the inhibition was 0% (inactive).

Consider `CCOc1cccc(-c2nc3ccc(OC(C)=O)cc3c(=O)o2)c1`, for which the inhibition is 5% (inactive).

On to `CCCc1nsc2nc(-c3ccccc3Cl)oc(=O)c12`, for which the inhibition is 15% (inactive).

On to `Cc1nsc2nc(-c3cc(S(=O)(=O)N4CCCC4)ccc3Cl)oc(=O)c12`, for which the inhibition is 65%.

As for `O=c1oc(-c2ccccc2)nc2c1oc1ccc(Cl)cc12`, the inhibition was 40% (inactive).

For `CCCOc1cccc(-c2nc3cc(OC)c(OC)cc3c(=O)o2)c1`, the inhibition was 10% (inactive).

Take `O=c1oc(COc2ccccc2Cl)nc2ccccc12`: the inhibition is 10% (inactive).

Consider `Cc1nsc2nc(-c3cc(S(=O)(=O)N(C)Cc4ccccc4)ccc3Cl)oc(=O)c12`, for which the inhibition is 30% (inactive).

`O=c1oc(-c2ccc([N+](=O)[O-])cc2)nc2c1cnn2-c1ccccc1`: the inhibition was 0% (inactive).

On to `O=c1oc(-c2ccc(F)cc2)nc2scc(-c3ccc(Br)cc3)c12`, for which the inhibition was 0% (inactive).

Turning to `O=c1oc(-c2ccccc2F)nc2scc(-c3cccs3)c12`, the inhibition was 80%.

For `CCc1nc2sc(-c3ccccc3)c(-c3ccccc3)c2c(=O)o1`, the inhibition was 55% (inactive).

For the compound `Cc1nsc2nc(-c3ccccc3Cl)oc(=O)c12`, the inhibition is 0% (inactive).

Source of the values: PubChem BioAssay AID588589 (The Scripps Research Institute Molecular Screening Center, 2011).
